Literature values in PMC5618157, “The Role of Disulfide Bond Replacements in Analogues of the Tarantula Toxin ProTx-II and Their Effects on Inhibition of the Voltage-Gated Sodium Ion Channel Nav1.7” (Journal of the American Chemical Society, 2017).

Columns and labels:
mouse model (analgesia) = conditions: injections of ProTx-II
Source text: Despite these structural studies, much remains unknown about the mechanism of action of ProTx-II on Nav1.7. […] Instead, studies into the interaction of ProTx-II and HwTx-IV with hNav1.7 proposed that both peptides interact with the domain II voltage-sensing domain (VSD), with ProTx-II also trapping the domain IV VSD in the resting configuration.[38] Mutagenesis experiments on ProTx-II by Park and co-workers,[36] and investiga ...

Nav1.7 = conditions: read-out: IC50 against Nav1.7
Source text: ProTx-II has been the subject of particular interest from researchers as a possible lead for the treatment of chronic nociceptive pain.[4] […] Nav1.7 has been implicated as a target for the treatment of chronic pain after loss-of-function mutations in the corresponding SCN9A gene left their carriers unable to feel pain, with seemingly no ...

In the case of ProTx-II, the “analgesia in a mouse model” value (mouse model (analgesia)) is given as “failed to elicit analgesia” and the IC50 (Nav1.7) is given as 300 pM.
